Values joined by “and” are separate entries in the source; they are usually repeats but may differ in a detail not shown here. Equal values may be shown once.
Tested on: placental gene expression
Test: Placental gene expression (Affymetrix Rat Genome Chip 230.2) after SSRI (fluoxetine) exposure throughout gestation
Format: in vivo
Experimental: Gene expression data from pregnant rats under different forms of dietary restriction was gathered. […] (N=8) • Group 2 (CR50): Rats Given 50% of their Normal Daily Intake of Food. (N=5) • Group 3 (CR70): Rats Given 70% of their Normal Daily Intake of Food. […] (N=6) Placentas from the rats of each Group were harvested on Day 21 of gestation. RNA was extracted and gene expression was measured based on hybridization of RNA to Affymetrix Rat Genome Chips™ (230.2) (Affymetrix, Santa Clara, Calif.).
In order to determine whether placental gene expression profiling can be used to identify other prenatal exposures such as toxicants and drugs, a group of rats with drug exposure was monitored as described above. […] As with control, CR50, CR70, and HF groups, placentas from the mothers were sampled after 21 days of gestation and gene expression monitored utilizing an Affymetrix Rat Genome Chip.

[1] = rat placenta, day 21 of gestation, individual animals of SSRI group

## CNCCC(Oc1ccc(C(F)(F)F)cc1)c1ccccc1 (centres unmarked) [fluoxetine, Fluoxetine]
placenta, SSRI-exposed samples
  expression, probeset 1384527_at: 5 and 5.16 and 4.806 and 4.891 and 4.944 and 4.995
  expression, probeset 1384528_at: 7.1 and 7.424 and 7.73 and 8.04 and 7.505 and 7.682
  expression, probeset 1384641_at: 5.867 and 5.877 and 5.784 and 5.513 and 5.517 and 5.626
  expression, probeset 1384849_at: 4.659 and 4.629 and 5.174 and 5.223 and 4.879 and 4.92
  expression, probeset 1384923_at: 6.977 and 7.2 and 6.818 and 6.939 and 6.837 and 6.982
  expression, probeset 1385137_at: 6.326 and 6.421 and 6.154 and 5.912 and 6.02 and 6.248
  expression, probeset 1385163_at: 6.063 and 5.993 and 6.045 and 5.955 and 5.885 and 6.124
  expression, probeset 1385336_at: 4.379 and 4.499 and 4.426 and 4.399 and 4.645 and 4.457
  expression, probeset 1385442_at: 7.16 and 7.404 and 6.997 and 6.879 and 6.92 and 6.943
  expression, probeset 1385518_at: 6.937 and 6.773 and 6.99 and 6.986 and 7.076 and 6.76
  expression, probeset 1385535_at: 4.02 and 3.842 and 4.063 and 4.09 and 4.042 and 4.166
  expression, probeset 1385652_at: 7.797 and 7.898 and 7.543 and 7.484 and 7.575 and 7.378
  expression, probeset 1385676_at: 8.114 and 8.061 and 8.462 and 8.533 and 8.039 and 8.344
  expression, probeset 1385698_at: 3.878 and 3.859 and 3.777 and 3.605 and 3.7424 and 3.746
  expression, probeset 1385760_at: 7.137 and 7.354 and 6.648 and 7.09 and 7.316 and 7.321
  expression, probeset 1385775_at: 4.145 and 4.375 and 3.896 and 3.993 and 4.079 and 4.161
  expression, probeset 1386125_at: 6.311 and 6.381 and 6.134 and 6.261 and 6.055 and 6.325
  expression, probeset 1386158_at: 4.004 and 4.128 and 4.063 and 4.152 and 3.988 and 3.931
  expression, probeset 1386414_at: 6.861 and 7.196 and 6.932 and 7.199 and 7.249 and 7.033
  expression, probeset 1386519_x_at: 7.188 and 7.295 and 7.082 and 7.038 and 7.203 and 7.126
  expression, probeset 1387083_at: 5.565 and 6.278 and 5.686 and 5.781 and 5.789 and 5.938
  expression, probeset 1387136_at: 6.691 and 6.697 and 6.593 and 6.718 and 6.67 and 6.537
  expression, probeset 1387406_at: 6.01 and 6.243 and 5.981 (2×) and 5.916 and 6.087
  expression, probeset 1387459_at: 3.484 and 3.639 and 3.932 and 3.86 and 3.992 and 3.799
  expression, probeset 1387764_at: 5.733 and 5.268 and 5.537 and 5.549 and 5.494 and 5.603
  expression, probeset 1387899_at: 5.335 and 5.408 and 5.339 and 5.026 and 4.958 and 5.215
  expression, probeset 1387912_at: 8.618 and 8.518 and 8.718 and 9.05 and 9.01 and 8.757
  expression, probeset 1388037_at: 4.856 and 4.68 and 4.647 and 4.894 and 4.953 and 4.682
  expression, probeset 1388091_at: 4.362 and 4.794 and 4.302 and 4.133 and 4.449 and 4.329
  expression, probeset 1388390_at: 10.86 and 10.87 and 11.34 and 11.8393 and 11.4165 and 11.4451
  expression, probeset 1388396_at: 8.176 and 7.836 and 8.032 and 8.018 and 7.774 and 8.067
  expression, probeset 1388447_at: 7.564 and 7.841 and 7.682 and 7.537 and 7.38 and 7.532
  expression, probeset 1388486_at: 7.701 and 7.565 and 7.723 and 7.751 and 7.921 and 7.749
  expression, probeset 1388781_at: 5.825 and 6.004 and 5.674 and 5.735 and 5.979 and 5.673
  expression, probeset 1388938_at: 9.061 and 9.268 and 8.805 and 8.994 and 8.728 and 9.107
  expression, probeset 1389095_at: 5.489 and 5.217 and 5.112 and 5.397 and 5.478 and 5.073
  expression, probeset 1389431_at: 6.558 and 6.3 and 6.381 and 6.49 and 6.951 and 6.471
  expression, probeset 1389551_at: 8.862 and 8.606 and 8.909 and 8.801 and 8.621 and 8.842
  expression, probeset 1389664_at: 7.741 and 8.146 and 7.529 and 7.949 and 7.982 and 7.952
  expression, probeset 1389835_at: 4.064 and 3.784 and 4.093 and 4.045 (2×) and 4.18
  expression, probeset 1389917_at: 5.998 and 5.507 and 6.012 and 5.987 and 5.908 and 5.888
  expression, probeset 1389938_at: 3.638 and 3.579 and 3.678 and 3.837 and 3.753 and 3.593
  expression, probeset 1390090_at: 7.476 and 7.464 and 7.498 and 7.393 and 7.3 and 7.578
  expression, probeset 1390259_at: 4.304 and 4.546 and 4.677 and 4.255 and 4.358 and 4.411
  expression, probeset 1390464_at: 5.625 and 5.847 and 5.541 and 5.807 and 5.983 and 5.83
  expression, probeset 1390534_at: 6.478
  expression, probeset 1390603_at: 6.467 and 6.868 and 6.527 and 6.621 and 6.242 and 6.674
  expression, probeset 1390649_at: 7.28 and 7.575 and 6.821 and 7.034 and 7.132 and 6.938
  expression, probeset 1390892_at: 5.112 and 5.3382 and 4.891 and 5.21 and 4.944 and 5.358
  expression, probeset 1391042_at: 7.197 and 7.167 and 6.844 and 6.389 and 6.757 and 6.835
  expression, probeset 1391078_at: 9.617 and 9.614 and 9.751 and 9.434 and 10.05 and 9.264
  expression, probeset 1391376_at: 7.297 and 7.473 and 6.881 and 6.738 and 6.838 and 6.654
  expression, probeset 1391555_at: 7.012 and 7.728 and 6.644 and 6.541 and 6.178 and 6.968
  expression, probeset 1391709_at: 4.661 and 4.684 and 4.722 and 4.806 and 4.713 and 4.47
  expression, probeset 1392028_at: 6.162 and 6.747 and 6.346 and 6.242 and 6.323 and 6.159
  expression, probeset 1392231_at: 6.879 and 7.148 and 7.615 and 7.767 and 7.913 and 7.35
  expression, probeset 1392936_at: 8.882 and 8.406 and 9.262 and 8.975 and 9.393 and 8.807
  expression, probeset 1392950_at: 3.949 and 4.094 and 3.999 and 4.085 and 4.164 and 3.919
  expression, probeset 1393104_at: 5.321 and 5.704 and 5.504 and 5.333 and 5.921 and 5.58
  expression, probeset 1393266_at: 4.99 and 5.174 and 4.982 and 4.609 and 4.824 and 4.636
  expression, probeset 1393517_at: 6.631 and 6.746 and 6.287 and 6.483 and 6.515 and 6.633
  expression, probeset 1393539_at: 6.157 and 5.169 and 4.952 and 5.172 and 5.083 and 5.053
  expression, probeset 1393580_at: 5.687 and 6.03 and 5.819 and 5.753 and 6.108 and 5.967
  expression, probeset 1393752_at: 6.208 and 6.548 and 6.148 and 6.455 and 6.651 and 6.417
  expression, probeset 1393798_at: 3.547 and 3.62 and 3.802 and 3.629 and 3.836 and 3.782
  expression, probeset 1393853_at: 5.346 and 5.933 and 5.865 and 5.835 and 5.821 and 5.912
  expression, probeset 1393939_at: 4.71 and 4.865 and 4.742 and 4.586 and 4.592 and 4.507
  expression, probeset 1393989_at: 5.99 and 6.475 and 6.07 and 6.001 and 6.425 and 6.268
  expression, probeset 1394361_a_at: 4.204 and 4.507 and 4.247 and 4.097 and 4.402 and 4.275
  expression, probeset 1394414_at: 9.565 and 9.667 and 9.428 and 9.394 and 9.769 and 9.655
  expression, probeset 1394498_at: 5.626 and 5.476 and 5.778 and 5.78 and 5.589 and 5.688
  expression, probeset 1394762_at: 3.748 and 3.837 and 3.727 and 3.741 and 3.941 and 3.853
  expression, probeset 1394790_at: 6.185 and 6.363 and 6.208 and 6.069 and 6.016 and 6.008
  expression, probeset 1395303_at: 3.284 and 3.242 and 3.289 and 3.3 and 3.261 and 3.274
  expression, probeset 1395316_at: 6.786 and 6.744 and 6.399 and 5.525 and 5.977 and 6.48
  expression, probeset 1395875_at: 7.411 and 7.212 and 7.607 and 7.667 and 7.918 and 7.66
  expression, probeset 1395951_at: 4.46 and 4.582 and 4.341 and 4.395 and 4.516 and 4.568
  expression, probeset 1395970_at: 4.781 and 4.846 and 4.597 and 4.342 and 4.707 and 4.733
  expression, probeset 1396104_at: 5.464 and 5.416 and 5.468 and 5.564 and 5.567 and 5.601
  expression, probeset 1396326_at: 5.928 and 5.926 (2×) and 5.857 and 6.008 and 5.802
  expression, probeset 1397116_at: 3.723 and 3.556 and 3.711 and 3.773 and 3.705 and 3.589
  expression, probeset 1397187_at: 5.847 and 6.088 and 6.024 and 5.915 and 5.91 and 5.886
  expression, probeset 1397500_x_at: 6.721 and 7.079 and 6.818 and 6.587 and 6.983 and 6.477
  expression, probeset 1397676_at: 6.024 and 6.128 and 5.935 and 6.174 and 6.311 and 5.898
  expression, probeset 1397738_at: 4.159 and 4.154 and 4.198 and 4.197 and 4.131 and 4.271
  expression, probeset 1397834_at: 6.223 and 6.44 and 5.752 and 5.565 and 5.81 and 5.978
  expression, probeset 1397911_at: 5.777 and 6.103 and 5.669 and 5.522 and 5.664 and 5.597
  expression, probeset 1397956_at: 5.497 and 5.765 and 4.575 and 4.745 and 5.255 and 5.147
  expression, probeset 1398025_at: 6.981 and 7.045 and 6.561 and 6.889 and 6.773 and 6.868
  expression, probeset 1398196_at: 5.275 and 5.259 and 5.614 and 5.101 and 5.599 and 5.566
  expression, probeset 1398208_s_at: 6.67 and 6.822 and 6.248 and 6.32 and 5.983 and 6.359
  expression, probeset 1398571_x_at: 5.476 and 5.783 and 5.339 and 5.581 and 5.638 and 5.597
Rat placenta, day 21 of gestation, approximately 10 mg/kg/day in drinking water throughout pregnancy, vs control
  number of probe sets whose expression was altered by exposure: 281 probe sets
[1]
  Log base 2 expression for G6 (probe set 1369132, solute carrier 18, member 2): 8.97 log base 2 and 9.76 log base 2 and 8.56 log base 2 and 8.71 log base 2 and 8.41 log base 2 and 9.1 log base 2
  Log base 2 expression for G7 (probe set 1368474, vascular adhesion molecule 1): 5.83 log base 2 and 6.83 log base 2 and 5.81 log base 2 and 5.78 log base 2 and 6.05 log base 2
  Log base 2 expression for G8 (probe set 1388116, collagen type 1 alpha): 8.34 log base 2 and 8.25 log base 2 and 7.56 log base 2 and 7.7 log base 2 and 7.57 log base 2 and 7.69 log base 2
  Log base 2 expression for G9 (probe set 1368558, allograft inflammatory factor 1): 5.07 log base 2 and 5.61 log base 2 and 6.11 log base 2 and 5.3 log base 2 and 5.39 log base 2
  Log base 2 expression for G10 (probe set 1387796, arachidonate 12 lipoxygenase): 7.19 log base 2 and 8.37 log base 2 and 8.23 log base 2 and 6.76 log base 2 and 8.03 log base 2

Reference: US20090087845A1, “Genetic Markers Of True Low Birth Weight” (priority 2005, published 2009)
